Source: patent US10548858B2, “Inhibition of sphingosine 1-phosphate receptor for treatment and prevention of lymphedema” (Memorial Sloan Kettering Cancer Center, priority 2016, dated 2020)
“Also recorded” adds a separate entry of the source.

Key:
CD4+ cells = experiment: CD4+ cell flow cytometry of lymph nodes and hind limb skin after PLND and adoptive transfer, with or without FTY720; type: in vivo, mouse; conditions: CD4KO mice, PLND, 24 hours after adoptive transfer of CD4+ cells
Procedure: Metzler et al., Int. Immunol. 20:633 (2008); Kharel et al., J. Biol. Chem. 280:36865 (2005). Control animals were treated with vehicle alone.
To induce lymphedema, we used a mouse tail model in which a 5 vmm portion of the mid-tail is excised and the deep lymphatic collecting vessels are ligated. Avraham et al., Am. J. Pathol. 177:3202 (2010); Clavin et al., Am. J. Physiol. Heart Circ. Physiol. 295:H2113 (2008); Rutkowski et al., Microvasc. Res. 72:161 (2006); Tabibiazar et al., PloS Med 3:e254 (2006). This model reliably results in sustained tail swelling, severe impairment in lymphatic function, and histopathologic features consistent with clinical lymphedema, lasting as long as 10 weeks after surgery. Avraham et al., Am. J. Pathol. 177:3202 (2010); Clavin et al., Am. J. Physiol. Heart Circ. Physiol. 295:H2113 (2008); Rutkowski et al., Microvasc. Res. 72:161 (2006); Tabibiazar et al., PloS Med 3:e254 (2006). […]
Culture expanded naïve CD4^+ cells (1×10^7) were suspended in 100 μL of sterile phosphate buffered saline (PBS) and adoptively transferred to CD4KO mice by weekly retro-orbital sinus injections beginning two weeks after surgery for 2 or 4 weeks (for PLND or lymphatic tail ablation, respectively), followed by sacrifice. […] Delivery of CD4^+ cells was confirmed using flow cytometry to quantify CD4^+ cells in single cell suspensions created from spleens and aortic lymph nodes. […]

[1] = system: lymphedema (mouse tail lymphatic ablation); experiment: Mouse tail skin/lymphatic ablation model of lymphedema, 6 weeks of treatment; type: in vivo; conditions: wild-type mice, 6 weeks after lymphatic ablation
Source text: To determine if FTY720 treatment can be useful for treating lymphedema, we next performed tail skin/lymphatic ablations on wild-type mice and treated experimental animals with FTY720 and control animals with vehicle only for 6 weeks.
To induce lymphedema, we used a mouse tail model in which a 5 vmm portion of the mid-tail is excised and the deep lymphatic collecting vessels are ligated. Avraham et al., Am. J. Pathol. 177:3202 (2010); Clavin et al., Am. J. Physiol. Heart Circ. Physiol. 295:H2113 (2008); Rutkowski et al., Microvasc. Res. 72:161 (2006); Tabibiazar et al., PloS Med 3:e254 (2006). This model reliably results in sustained tail swelling, severe impairment in lymphatic function, and histopathologic features consistent with clinical lymphedema, lasting as long as 10 weeks after surgery. Avraham et al., Am. J. Pathol. 177:3202 (2010); Clavin et al., Am. J. Physiol. Heart Circ. Physiol. 295:H2113 (2008); Rutkowski et al., Microvasc. Res. 72:161 (2006); Tabibiazar et al., PloS Med 3:e254 (2006). In other experiments, animals were randomized to either PLND or sham surgery. PLND was performed as previously reported, removing the nodes, surrounding fat pad, and afferent/efferent lymphatics. Control animals underwent sham popliteal surgeries where a skin incision was made in the area of the popliteal lymph node without nodal resection. Although sustained lymphedema is not observed here, it has previously been described as a means of analyzing regeneration of collateral lymphatics and collecting lymphatic pumping capacity. Proulx et al., Biomaterials 34:5128 (2013); Sharma et al., Am. J. Physiol. Heart and Circul. Physiol. 292:H3109 (2007).
In other experiments, WT mice underwent tail or popliteal lymphatic ablation surgeries and were subsequently randomized to treatment with FTY720 (Sigma Aldrich, St. Louis, Mo.), an […] modulator that blocks lymphocyte egress from lymph nodes. Metzler et al., Int. Immunol. 20:633 (2008); Kharel et al., J. Biol. Chem. 280:36865 (2005). Briefly, FTY720 was dissolved in water as per the manufacturer's recommendations, and supplied ad libitum starting the day of lymphatic ablation. Mice received an estimated 1.25 mg/kg/day for 2 or 6 weeks (for PLND or tail surgeries, respectively) until tissues were harvested. […]
Tail volumes were calculated weekly using the truncated cone formula. […]
Subcutaneous adipose tissue thickness measurements were analyzed by 2 blinded reviewers (n=5-6 animals/group) using standardized cross-sections by measuring from the width of tissues bounded by the reticular dermis to the deep fascia in 4 standardized regions per section. Capillary lymphatic vessel area was quantified as previously described using Panoramic viewer software (3DHistech, Budapest, Hungary) in four 40× high-power fields/animal per group. […]

lymphedema = conditions: cited from earlier work
[2] = FTY720 estimated 1.25 mg/kg/day in water, vs vehicle

| SMILES | CD4+ cells in the hind limb skin (CD4+ cells; vs vehicle treated PLND mice) | accumulation of CD4+ cells in the inguinal lymph node (CD4+ cells; vs vehicle, FTY720 in drinking water, estimated 1.25 mg/kg/day) | tail fibrosis (gross analysis) [1, 2] | tail swelling (gross analysis) [1, 2] | fibroadipose tissue deposition (thickness) ([1]; cross-sectional histology, vs vehicle control) | tail volumes (percentage change) ([1]; vs vehicle control) | clinical success in patients with lymphedema (lymphedema) | toxicity (lymphedema; patients with lymphedema) |
| --- | --- | --- | --- | --- | --- | --- | --- | --- |
| CCCCCCCCc1ccc(CCC(N)(CO)CO)cc1 [FTY720, 2-amino-2-[2-(4-octylphenyl)ethyl]propane-1,3-diol] | decreased the number of these cells in hind limb skin; also recorded: marked decrease | prevented release of CD4+ cells from the lymph node; also recorded: increased significantly | lack of swelling and fibrosis; also recorded: markedly decreased | lack of swelling; also recorded: markedly decreased | decreased fibroadipose tissue deposition; also recorded: significant decreases | lack of swelling; also recorded: significant decreases | – | – |
| O=c1ccc2ccccc2o1 [Coumarin] | – | – | – | – | – | – | modest success | significant toxicity including liver failure and death |
